≈ marks a conversion by molar mass, not a printed value. Where “and” joins values, the source holds several entries; their conditions need not be identical. Identical values can stand only once. Like-named read-outs stand apart in the source and are kept apart here. Each block holds one compound with its values, some of them ahead of it.
Tests used:
[1] = target: T1, aromatase (human placental microsomes) (Homo sapiens, UniProt P11511); test: Noncellular, enzyme-based, microsomal aromatase bioassay; assay type: biochemical; conditions: for Noncellular Bioassay PCA 20 μg/mL: percent control activity; for IC50: six concentrations 1-100 μM;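 on all read-outs here: aromatase activity read as tritiated water release by scintillation counting after 15 min at 37 °C, relative to DMSO vehicle, with boiled microsomes giving background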
T1 construct: Microsomes were obtained from the remaining tissue as described; from tissue; host or cells: human term placenta (microsomal fraction)
T1 sequence (P11511 1-503): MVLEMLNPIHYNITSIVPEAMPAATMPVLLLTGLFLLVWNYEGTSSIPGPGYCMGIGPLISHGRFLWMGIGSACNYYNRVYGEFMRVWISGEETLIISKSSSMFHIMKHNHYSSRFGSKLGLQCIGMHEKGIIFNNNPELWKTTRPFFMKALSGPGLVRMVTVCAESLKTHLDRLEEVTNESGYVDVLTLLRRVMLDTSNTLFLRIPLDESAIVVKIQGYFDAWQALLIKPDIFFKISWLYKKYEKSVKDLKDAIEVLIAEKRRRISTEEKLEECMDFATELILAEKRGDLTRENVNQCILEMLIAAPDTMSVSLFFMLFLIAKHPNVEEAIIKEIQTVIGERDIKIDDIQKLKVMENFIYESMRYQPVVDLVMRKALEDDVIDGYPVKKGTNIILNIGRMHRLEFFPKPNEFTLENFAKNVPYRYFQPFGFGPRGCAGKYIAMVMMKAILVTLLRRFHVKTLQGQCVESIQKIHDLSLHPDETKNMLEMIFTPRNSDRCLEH

[2] = Peroxynitrite scavenging activity, authentic ONOO−
Experimental: (§1) ONOO-scavenging activity was measured by monitoring the oxidation of nonfluorescent DHR 123 to highly fluorescent rhodamine 123 using the modified method of Kooy et al. Briefly, DHR 123 (5 mM) in EtOH, purged with nitrogen, was stored at −80° C. as a stock solution. This solution was not exposed to light, prior to the study. The rhodamine buffer (pH 7.4) consisted of 50 mM sodium phosphate dibasic, 50 mM sodium phosphate monobasic, 90 mM sodium chloride, 5 mM potassium chloride, and 100 μM DTPA. The final concentration of DHR 123 was 5 μM. The buffer in this assay was prepared before use and placed on ice. The concentrations of compounds tested were in the range from 0.2 to 100 μM in 10% DMSO. The background and final fluorescent intensities were measured 5 min after treatment with and without the addition of authentic ONOO— in 0.3 N sodium hydroxide (10 μM) or SIN-1 in deionized water (10 μM). DHR 123 was oxidized rapidly by ONOO—, superoxide anion (O2.-), and nitric oxide (NO.). The fluorescence intensity of oxidized DHR 123 was measured with an LS55 luminescence spectrometer (Perkin-Elmer, Boston, Mass.) at the excitation and emission wavelengths of 480 and 530 nm, respectively. […] DL-Penicillamine was used as a positive control.

[3] = Peroxynitrite scavenging activity, SIN-1-derived ONOO−
Experimental: as §1

[4] = test system: SK-BR-3 cells; test: SK-BR-3 cell-based cytotoxicity bioassay (MTT cell viability); parameters: species or system human; conditions: 50 μM
[5] = target: T2, aromatase in SK-BR-3 cells (Homo sapiens, UniProt P11511); test: SK-BR-3 cell-based aromatase bioassay
T2 construct: SK-BR-3 hormone-independent human breast cancer cells that overexpress aromatase; endogenous in cells; host or cells: SK-BR-3 human breast cancer cells
T2 sequence (P11511 1-503): T1 sequence (P11511 1-503)

[6] = test system: preneoplastic lesions (aberrant crypt foci); conditions: recent work, background statement, cited from earlier work
[7] = test system: DMBA-induced preneoplastic lesions; test: Mouse mammary organ culture (MMOC) assay; assay type: cell-based; conditions: for percent inhibition of DMBA-induced preneoplastic lesions: 10 μg/mL
Experimental: This assay was carried out according to an established protocol disclosed in the art. In brief, 4-week-old BALB/c female mice (Charles River, Wilmington, Mass.) were pretreated for 9 days with 1 μg of estradiol and 1 mg of progesterone. On the 10th day, the mice were sacrificed and the second pair of thoracic mammary glands was dissected on silk and transferred to 60 mm culture dishes containing 5 mL of Waymouth's 752/1 MB medium supplemented with streptomycin, penicillin, and L-glutamine. The glands were incubated for 10 days (37° C., 95% O2 and 5% CO2) in the presence of growth-promoting hormones (5 μg of insulin, 5 μg of prolactin, 1 μg of aldosterone, and 1 μg of hydrocortisone per milliliter of medium). Glands were exposed to 2 μg/mL 7,12-dimethylbenz[a]anthracene (DMBA) between 72 and 96 h. After their exposure, glands were rinsed and transferred to new dishes with fresh medium. The fully differentiated glands were then permitted to regress by withdrawing all hormones except insulin for 14 additional days. Test compounds were present in the medium during days 1-10 of culture; mammary glands were scored for the incidence of lesions.

[8] = test system: DMBA-induced preneoplastic lesions; conditions: background statement; cited from earlier work
[9] = test system: quinone reductase; test: Quinone reductase (QR) induction assay in Hepa 1c1c7 cells; assay type: cell-based, murine
Source text: Thus compound 21 is a candidate for use as a cancer chemopreventive agent.

Noncellular Bioassay PCA 20 μg/mL [1]: 52.6 PCA
Compound: 1-isomangostin [Compound 9]

Noncellular Bioassay PCA 20 μg/mL [1]: 82.6 PCA
Compound: 8-deoxygartanin [Compound 4]

Noncellular Bioassay PCA 20 μg/mL [1]: 55.1 PCA
Compound: 8-hydroxycudraxanthone G [Compound 1]
antioxidant activity, in words (authentic ONOO−) [2]: potent antioxidant activity
antioxidant activity, in words (SIN-1-derived ONOO−) [3]: potent antioxidant activity

aromatase inhibiting activity, in words [1]: greatest aromatiase inhibiting activity
Noncellular Bioassay PCA 20 μg/mL [1]: 10.0 PCA
IC50 [1]: 5.16 µM and 5.2 µM
Cell-based Bioassay PCA 50 μM [5]: 50.7 PCA
Compound: COc1c(O)cc2oc3cc(O)c(CC=C(C)C)c(O)c3c(=O)c2c1CCC(C)(C)O [Compound 6, garcinone D]
Cytotoxicity % cell surv. [4]: 89.4%

Noncellular Bioassay PCA 20 μg/mL [1]: 75.9 PCA
Compound: CC(C)=CCc1c(O)c(CC=C(C)C)c2oc3c(O)ccc(O)c3c(=O)c2c1O [Compound 8, gartanin]

Noncellular Bioassay PCA 20 μg/mL [1]: 78.8 PCA
Compound: CC(C)=CCC/C(C)=C/Cc1c(O)cc2oc3c(O)cccc3c(=O)c2c1O [Compound 12, mangostinone]

Noncellular Bioassay PCA 20 μg/mL [1]: 80.8 PCA
Compound: CC(C)=CCC/C(C)=C/Cc1c(O)cc2oc3c(O)ccc(O)c3c(=O)c2c1O [Compound 13, smeathxanthone A]
antioxidant activity, in words (authentic ONOO−) [2]: potent antioxidant activity
antioxidant activity, in words (SIN-1-derived ONOO−) [3]: potent antioxidant activity

Noncellular Bioassay PCA 20 μg/mL [1]: 74.7 PCA
Compound: CC(C)=CCc1c(O)cc2oc3c(CC=C(C)C)c(O)c4c(c3c(=O)c2c1O)C=CC(C)(C)O4 [Compound 14, tovophyllin A]

Cell-based Bioassay PCA (positive control) ([5]; 10 nM letrozole): 7.4 PCA
Compound: N#Cc1ccc(C(c2ccc(C#N)cc2)n2cncn2)cc1 [LET, Letrozole, reference compound]

Noncellular Bioassay PCA 20 μg/mL [1]: 57.8 PCA
Compound: cudraxanthone G [Compound 3]

aromatase inhibiting activity, in words [1]: greatest aromatiase inhibiting activity
Noncellular Bioassay PCA 20 μg/mL [1]: 23.9 PCA
IC50 [1]: 25.1 µM
Cell-based Bioassay PCA 50 μM [5]: 32.3 PCA
Compound: garcinone E [Compound 7]
Cytotoxicity % cell surv. [4]: 52.3%

Second part, the compound before the results:

Compound: COc1ccc([C@@H]2COc3c(ccc4c3C=CC(C)(C)O4)C2)c(O)c1 [4′O-methylglabridin]
aromatase inhibiting activity, in words [1]: show results that are supportive of these compounds having utility as aromatase inhibitors

Compound: COc1c(O)cc2oc3cc(O)c(CC=C(C)C)c(O)c3c(=O)c2c1CC=C(C)C [Compound 10, α-mangostin]
inhibition of preneoplastic lesions in colon carcinogenesis model, in words [6]: suppress the carcinogen-induced formation of aberrant crypt foci
inhibition of preneoplastic lesions in colon carcinogenesis model, in words ([6]; listed as crude α-mangostin (10) preparation): efficacy in inhibiting preneoplastic lesions
IC50 in dose-response MMOC assay [7]: 1.0 µg/mL (≈ 2.44 µM)
percent inhibition of DMBA-induced preneoplastic lesions [7]: 57.1%
IC50 ([7]; same value in μM, read-out: IC50 in dose-response MMOC assay): 2.44 µM
antioxidant activity, in words (authentic ONOO−) [2]: potent antioxidant activity
aromatase inhibiting activity, in words [1]: greatest aromatiase inhibiting activity
Noncellular Bioassay PCA 20 μg/mL [1]: 22.2 PCA
IC50 [1]: 20.7 µM
alveolar duct formation in mouse mammary organ culture model, in words [8]: inhibit alveolar duct formation
antioxidant activity, in words (SIN-1-derived ONOO−) [3]: potent antioxidant activity
Cytotoxicity % cell surv. [4]: 18.4%
Cell-based Bioassay PCA 50 μM [5]: 59.4 PCA

Compound: CC(C)=CCc1c(O)cc2oc3cc(O)c(O)c(CC=C(C)C)c3c(=O)c2c1O [Compound 11, γ-mangostin]
percent inhibition of DMBA-induced preneoplastic lesions [7]: 42.9%
antioxidant activity, in words (authentic ONOO−) [2]: potent antioxidant activity
aromatase inhibiting activity, in words [1]: greatest aromatiase inhibiting activity
Noncellular Bioassay PCA 20 μg/mL [1]: 4.7 PCA
IC50 [1]: 6.88 µM and 6.9 µM
antioxidant activity, in words (SIN-1-derived ONOO−) [3]: potent antioxidant activity
IC50 [5]: 4.97 ± 1.9 µM
Cell-based Bioassay PCA 50 μM [5]: −0.5 PCA

Compound: CC(C)=CCc1c(O)cc2oc3ccc4c(c3c(=O)c2c1O)C(O)C(C(C)(C)O)O4 (stereo not drawn) [Compound 21, 1,2-dihydro-1,8,10-trihydroxy-2-(2-hydroxypropan-2-yl)-9-(3-methylbut-2-enyl)furo[3,2-a]xanthen-11-one]
CD (concentration required to double QR induction activity) [9]: 1.3 µg/mL

Compound: CC(C)=CCc1c(O)ccc2oc3cc4c(c(O)c3c(=O)c12)CC(C(C)(C)O)O4 (stereo not drawn) [Compound 22, 2,3-dihydro-4,7-dihydroxy-2-(2-hydroxypropan-2-yl)-6-(3-methylbut-2-enyl)furo[3,2-b]xanthen-5-one]
CD (concentration required to double QR induction activity) [9]: 2.2 µg/mL

Compound: CC(C)=CCc1c(O)cc2oc3ccc(O)c(CC=C(C)C)c3c(=O)c2c1O [Compound 23, 1,3,7-trihydroxy-2,8-di-(3-methylbut-2-enyl)xanthone]
CD (concentration required to double QR induction activity) [9]: 0.68 µg/mL

Compound: COc1c(O)cc2oc3cc4c(c(O)c3c(=O)c2c1CC=C(C)C)C=CC(C)(C)O4 [Compound 24, mangostanin]
CD (concentration required to double QR induction activity) [9]: 0.95 µg/mL

Compound: O=C(/C=C/c1ccc(O)cc1)c1ccc(O)cc1O [isoliquiritigenin, reference compound]
CD (concentration required to double QR induction activity) [9]: 1.1 µg/mL

Compound: CC(C)=CCc1cc(/C=C/C(=O)c2ccc3c(c2O)C=CC(C)(C)O3)ccc1O [paratocarpin B]
aromatase inhibiting activity, in words [1]: show results that are supportive of these compounds having utility as aromatase inhibitors

— patent publication US20090181110A1, “Compositions from Garcinia as Aromatase Inhibitors for Breast Cancer Chemoprevention and Chemotherapy” (THE OHIO STATE UNIVERSITY RESEARCH FOUNDATION, priority 2007, published 2009)
